For one assay, the system named is E. coli ML-35p. Type of assay: cell-based, Escherichia coli. The settings on record: 10 mM NaP-10 mM NaCl, CFU assay. The method, then:
(§1) Antimicrobial assays. Antimicrobial assays were performed using the CFU assay as previously described (Rieg, S. et al. 2005 J. Immunol. 174:8003-8010, Schittek, B. et al. 2001 Nat. Immunol. 2:1133-1137). The antibacterial activity of DCD-derived peptides and LL-37 was tested against the following bacterial strains: Escherichia coli ATCC 25922, methicillin-susceptible Staphylococcus aureus ATCC 25923 (MSSA), methicillin-resistant Staphylococcus aureus (MRSA; clinical isolate), Staphylococcus epidermidis ATCC 12228, and Pseudomonas aeruginosa ATCC 27853. E. coli ML-35p was generously provided by Robert Lehrer (Department of Medicine, Center for Health Sciences, Los Angeles, Calif.) and cultivated on Luria-Bertani (LB) plates containing 50 μg of ampicillin/ml. This strain constitutively expresses cytoplasmic […] but lacks lactose permease (Lehrer, R. I. et al. 1988 J. Immunol. Methods 108:153-158). The bacterial membrane mutants Staphylococcus aureus mprF and dltA and Staphylococcus epidermidis Δica and the corresponding wild-type strains S. aureus 113 and S. epidermidis 1457 were previously described (Gotz, F. 2002 Mol. Microbiol. 43:1367-1378, Peschel, A. et al. 2001 J. Exp. Med. 193:1067-1076). Bacterial cultures were grown to mid-exponential growth phase and washed three times with 10 mM sodium phosphate buffer-10 mM NaCl (pH 7.0). The bacterial concentration was estimated photometrically at 600 nm. Absorbance of 1.0 corresponded to 8.56×10^8/ml for E. coli; 1×10^8/ml for E. coli ML-35p; 1.97×10^8/ml for S. aureus, MRSA, and the wild-type and membrane mutants of S. aureus and S. epidermidis; and 5.07×10^8/ml for P. aeruginosa.
(§2) After dilution to a concentration of 10^6 CFU/ml, 10-μl portions of the dilutions were incubated at 37° C. for 2 to 4 h with the respective peptide diluted in water in a total volume of 30 μl in 10 mM sodium phosphate buffer-10 mM NaCl (pH 7.0). After incubation, the cells were diluted 1:100 in 10 mM sodium phosphate buffer-10 mM NaCl (pH 7.0), and 90 μl of the diluted bacterial suspension was plated in triplicates on blood agar. Bacterial colonies were counted after incubation for 18 to 24 h at 37° C. The antimicrobial activity was calculated by using [(cell survival after peptide incubation)/(cell survival in buffer without peptide)×100]. The LC90 describes the lethal concentration of the current synthetic peptide in μg/ml or μM that leads to a 90% reduction of CFU compared to the buffer control.
(§3) ^aThe 90% inhibitory concentration (IC90) is the concentration of peptide in μg/ml (or in μM [in parentheses]) able to kill 90% of the microorganisms in 10 mM NaP-10 mM NaCl in a CFU assay compared to the control incubated only in buffer without peptide. ND, not determined.

Another assay relates to E. coli ATCC 25922. Type of assay: cell-based, Escherichia coli. The method, then:
as §1, §2, §3

The test system of the next assay is P. aeruginosa ATCC 27853. Type of assay: cell-based, Pseudomonas aeruginosa. The method, then: as §1, §2, §3
Another assay concerns S. epidermidis Δica. It is filed as cell-based, Staphylococcus epidermidis. To be noted: 10 mM NaP-10 mM NaCl, CFU assay. The method, then:
as §1, §2, §3

Assay [1] has as its system S. epidermidis ATCC 12228. Type of assay: cell-based, Staphylococcus epidermidis. The method, then: as §1, §2, §3
In the next assay the test system is S. aureus mprF. Type of assay: cell-based, Staphylococcus aureus. To be noted: 10 mM NaP-10 mM NaCl, CFU assay. The method, then:
as §1, §2, §3

The subject of a further assay is S. aureus dltA. It is filed as cell-based, Staphylococcus aureus. The settings on record: 10 mM NaP-10 mM NaCl, CFU assay. The method, then:
as §1, §2, §3

The subject of assay [2] is S. aureus (MSSA) ATCC 25923. Type of assay: cell-based, Staphylococcus aureus. The method, then: as §1, §2, §3
Assay [3] deals with Escherichia coli, Staphylococcus aureus, Enterococcus faecalis and Candida albicans. Nature of the assay: CFU test (colony-forming units), Example 4. It is filed as cell-based. The settings on record: sodium phosphate buffer, 37° C., 3 h, 4 h or overnight. The method, then:
The antimicrobial effect of said peptides was carried out by a CFU test (test for colony-forming units) as described for the defensins by Valore et al., “Human Beta-Defensin-1: An Antimicrobial Peptide of Urogenital Tissues”, J Clin Invest 101, 1633-1642 (1998).
The test of the novel peptides was carried out with Escherichia coli, Staphylococcus aureus, Enterococcus faecalis and Candida albicans. E. coli was incubated in LB medium, E. faecalis and S. aureus in Columbia medium (Difko, BD Heidelberg) and C. albicans in casein hydrolysate medium (Merck, Darmstadt). The amounts of bacteria and yeasts were determined by photometry. The bacterial strains were incubated to an optical density of […] at 600 nm and the yeast was incubated to an optical density of 0.4-0.6 at 450 nm. The amount of the organisms was determined by plating various dilutions as follows: an OD of 1 at 600 nm is equivalent to 8.2×10^9/ml for E. coli, 1.9×10^10/ml for S. aureus and 9.0×10^9/ml for E. faecalis, and an OD of 1 at […] is equivalent to 1.4×10^8/ml for C. albicans.
The cells were washed twice with 10 mM sodium phosphate buffer (pH 7.4) and diluted to 2-3×10^7 cells/ml (E. coli, E. faecalis), 5.7×10^7 cells/ml (S. aureus) or 5×10^5 cells/ml (C. albicans) in phosphate buffer.
The cells were incubated with various amounts of the peptides in 200 μl of sodium phosphate buffer at 37° C. for 3 h, 4 h or overnight (21-24 h). The cells were diluted 1:10 to 1:100 for the bacteria and 1:500 to 1:5000 for the yeast, and 50 μl, 100 μl and 200 μl were plated on appropriate agar plates. The plates were incubated at 37° C. overnight, and the number of colonies was counted. The antimicrobial effect of the peptides has been stated as percentage of killed cells: [1−(cell survival after incubation with the peptide)/(cell survival after control incubation)]×100.

Another assay has as its system S. aureus (ATCC 25923). Description: TEM and IEM of peptide-treated bacteria. It is filed as cell-based, Staphylococcus aureus. The method, then: FIG. 10. Morphology of peptide-treated S. aureus. […] As a negative control cells were incubated in buffer without peptide. For the immune-EM, bacteria were incubated with a polyclonal antiserum to DCD-1, and the reactivity was detected by immunogold labeling. Seen is the binding of DCD to the bacterial surface.
TEM and IEM. Liquid cultures of S. aureus (ATCC 25923) cells grown up to mid-logarithmic phase were washed twice in 10 mM sodium phosphate buffer (pH 7.4). […] In parallel, antimicrobial assays with both peptides were performed which confirmed the antibacterial activity of both peptides. For immune electron microscopy (IEM), cells were fixed in PLP and centrifuged, and the resulting bacterial pellet was embedded in 3.5% agarose at 37° C. and cooled on ice. Small parts of agarose blocks were embedded in Lowicryl (Polysciences, Eppelheim, Germany). Ultrathin sections (50 nm) were mounted on Formvar-coated nickel grids and incubated with rabbit anti-DCD, followed by 10-nm gold-conjugated goat anti-rabbit immunoglobulin G (Auroprobe EM; Amersham, Freiburg, Germany). In control samples the primary antibody was omitted. Samples were examined by using a Zeiss 109 transmission electron microscope (Zeiss, Oberkochen, Germany). For transmission EM (TEM) bacterial pellets were fixed in Karnovsky's fixative, postfixed in 1% osmium tetroxide, and embedded in Epon.

No end group written: not given here.

For the molecule “LEKGLDGAKKAVGGLGKLGKDAVEDLESVGKGAVHDVKDVLDSVL [LEK-45]”, the IC90 with E. coli ML-35p is greater than 200 mg/L; in the assay with E. coli ATCC 25922 it was >200 (>44) μg/ml; in the assay with P. aeruginosa ATCC 27853 it was >200 (>44) μg/ml; in the assay with S. epidermidis Δica, greater than 200 mg/L; in assay [1], 200 (44) μg/ml; in the assay on S. aureus mprF, greater than 200 mg/L. In addition, the IC90 with S. aureus dltA was greater than 200 mg/L; in [2] it was >200 (>44) μg/ml.
Consider SSLLEKGLDGAKKAVGGLGKLGK [SSL-23], for which the IC90 with E. coli ATCC 25922 was 10 µg/mL; with P. aeruginosa ATCC 27853, greater than 200 µg/mL; with S. epidermidis Δica it was greater than 200 mg/L; in [1] it was 8 µg/mL; in the assay on S. aureus mprF it was 50 mg/L; in the assay with S. aureus dltA, 10 mg/L. For the same molecule, in assay [2], the IC90 was 10 µg/mL.
For SSLLEKGLDGAKKAVGGLGKLGKDA [SSL-25], the IC90 was 9 mg/L in the assay on E. coli ML-35p; 10 µg/mL in the assay on E. coli ATCC 25922; 200 µg/mL in the assay with P. aeruginosa ATCC 27853; greater than 200 µg/mL in assay [1]; greater than 200 mg/L with S. aureus mprF; greater than 200 mg/L in the assay on S. aureus dltA. Further, the IC90 in assay [2] turned out to be 48 µg/mL.
Take SSLLEKGLDGAKKAVGGLGKLGKDAVEDL [SSL-29]: the IC90 in the assay with E. coli ML-35p was greater than 200 mg/L; with E. coli ATCC 25922 it was >200 (>69) μg/ml; in the assay with P. aeruginosa ATCC 27853, >200 (>69) μg/ml; in [1], 200 (69) μg/ml; with S. aureus mprF it was 180 mg/L; in [2], >200 (>69) μg/ml.
Regarding “SSLLEKGLDGAKKAVGGLGKLGKDAVEDLESVGKGAVHDVKDVLDSV (synthetic fragment of DCD protein) [DCD-1]”, the “antimicrobial effect (percentage of killed cells)” value in [3] was “quantity-dependent antimicrobial effect”. For the same molecule, the “morphological changes of S. aureus (transmission EM)” value with S. aureus (ATCC 25923) (100 μg/ml for 4 h) is listed as “no signs of cell wall damage. Instead, we observed cellular disintegration”. In addition, the “localisation of peptide on bacteria (immune-EM)” value with S. aureus (ATCC 25923) (antiserum to DCD-1, immunogold labeling) is reported as “able to bind to the cell surface but is not found in the bacterial cytoplasm”.
Regarding “SSLLEKGLDGAKKAVGGLGKLGKDAVEDLESVGKGAVHDVKDVLDSVL [DCD-1L]”, the IC90 was 30 mg/L with E. coli ML-35p; 45 µg/mL in the assay with E. coli ATCC 25922; greater than 200 µg/mL in the assay on P. aeruginosa ATCC 27853; greater than 200 mg/L in the assay with S. epidermidis Δica; 10 µg/mL in assay [1]; 50 mg/L in the assay on S. aureus mprF. For the same molecule, the IC90 stood at 6 mg/L in the assay on S. aureus dltA and 45 µg/mL in [2].
Regarding “YDPEAASAPGSGNPCHEASAAQKENAGEDP [Y-P30, survival promoting peptide Y-P30 with one amino acid replaced, reference compound]”, the “antimicrobial effect (percentage of killed cells)” value in assay [3] is listed as “no appreciable antimicrobial effect”.

B1: DCD protein: DCD protein comprising the sequence SEQ ID No: 1, 110 amino acid residues (protein, listed as Homo sapiens)
chain: MRFMTLLFLTALAGALVCAYDPEAASAPGSGNPCHEASAAQKENAGEDPGLARQAPKPRKQRSSLLEKGLDGAKKAVGGLGKLGKDAVEDLESVGKGAVHDVKDVLDSVL
For the molecule B1, the “antimicrobial effect (percentage of killed cells)” value in assay [3] is “toxic”.

The record behind these values is US8329865B2, “Antimicrobially active peptides” (priority 2001, dated 2012).
